For 13 compounds, IC50, INH and Ki results are on record in ChEMBL document CHEMBL4330064, “Phytoestrogens and their synthetic analogues as substrate mimic inhibitors of CYP1B1” (Eur J Med Chem, 2019).

In data set [1] the target is T1, Cytochrome P450 1B1 (Homo sapiens, UniProt Q16678).
T1 sequence (Q16678 whole entry): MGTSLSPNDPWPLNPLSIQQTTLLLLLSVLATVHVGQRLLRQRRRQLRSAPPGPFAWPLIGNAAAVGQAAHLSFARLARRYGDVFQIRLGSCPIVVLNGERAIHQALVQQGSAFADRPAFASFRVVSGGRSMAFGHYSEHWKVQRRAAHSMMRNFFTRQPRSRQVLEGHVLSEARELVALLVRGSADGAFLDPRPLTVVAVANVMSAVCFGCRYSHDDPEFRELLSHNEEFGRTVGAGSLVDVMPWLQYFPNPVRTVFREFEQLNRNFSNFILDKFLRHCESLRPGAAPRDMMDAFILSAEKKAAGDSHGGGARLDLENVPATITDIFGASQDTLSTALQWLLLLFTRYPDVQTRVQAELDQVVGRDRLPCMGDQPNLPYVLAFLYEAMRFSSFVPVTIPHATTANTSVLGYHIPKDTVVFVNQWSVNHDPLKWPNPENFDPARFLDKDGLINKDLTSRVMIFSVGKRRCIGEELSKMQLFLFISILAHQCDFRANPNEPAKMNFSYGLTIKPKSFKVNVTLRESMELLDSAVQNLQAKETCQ
Kind of data set: Inhibition of CYP1B1 in human MCF7 cells assessed as reduction in DMBA-induced CYP1B1-mediated EROD activity by EROD assay. It counts as cell-based.

Data set [2] addresses T1, Cytochrome P450 1B1. Kind of data set: Inhibition of CYP1B1 in human MCF7 cells assessed as reduction in TCDD-induced CYP1B1-mediated EROD activity by EROD assay. It counts as cell-based.
Data set [3] concerns the target T1, Cytochrome P450 1B1. Nature of the data set: Inhibition of human CYP1B1 using 7-Ethoxyresorufin as substrate after 30 mins in presence of NADP+ by EROD assay.
Data set [4] addresses T2, Cytochrome P450 1A1 (Homo sapiens, UniProt P04798). Nature of the data set: Inhibition of human CYP1A1 by EROD assay. Type of data set: ADME.
Data set [5] concerns the target T2, Cytochrome P450 1A1. Kind of data set: Inhibition of human CYP1A1 using 7-Ethoxyresorufin as substrate after 15 mins in presence of NADP+ by EROD assay. It counts as ADME.
The target in data set [6] is T3, Cytochrome P450 1A2 (Homo sapiens, UniProt P05177).
T3 sequence (P05177 whole entry): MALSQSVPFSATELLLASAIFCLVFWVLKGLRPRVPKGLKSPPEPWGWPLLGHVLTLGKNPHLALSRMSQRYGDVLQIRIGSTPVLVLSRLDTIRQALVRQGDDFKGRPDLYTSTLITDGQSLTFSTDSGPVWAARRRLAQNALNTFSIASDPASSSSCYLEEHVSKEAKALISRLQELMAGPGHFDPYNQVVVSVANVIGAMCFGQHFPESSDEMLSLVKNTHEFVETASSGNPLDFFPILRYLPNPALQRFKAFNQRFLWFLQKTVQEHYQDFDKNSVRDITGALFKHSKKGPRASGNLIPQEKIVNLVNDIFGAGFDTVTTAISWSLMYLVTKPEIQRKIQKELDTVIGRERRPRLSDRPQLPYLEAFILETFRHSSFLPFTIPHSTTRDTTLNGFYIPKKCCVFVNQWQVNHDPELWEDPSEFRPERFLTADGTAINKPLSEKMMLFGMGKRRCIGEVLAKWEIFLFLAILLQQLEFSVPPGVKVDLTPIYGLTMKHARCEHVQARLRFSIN
Kind of data set: Inhibition of human CYP1A2 using 7-Ethoxyresorufin as substrate after 50 mins in presence of NADP+ by EROD assay. It counts as ADME.

In data set [7] the target is T2, Cytochrome P450 1A1. Nature of the data set: Inhibition of […] CYP1A1 expressed in Escherichia coli DH5alpha cell membranes coexpressing human NADPH-cytochrome P450 reductase using 7-Ethoxyresorufin as substrate preincubated for 3 mins followed by NADPH addition measured after 10 mins by EROD assay. It counts as ADME. (In general: Liver microsomes are vesicles of endoplasmic reticulum, rich in cytochrome P450 enzymes.)

Data set [8] deals with T1, Cytochrome P450 1B1. Kind of data set: Inhibition of human CYP1B1 expressed in Escherichia coli DH5alpha cell membranes coexpressing human NADPH-cytochrome P450 reductase using 7-Ethoxyresorufin as substrate by EROD assay.
Data set [9] deals with T1, Cytochrome P450 1B1. Kind of data set: Inhibition of CYP1B1 in human HepG2 cells. Type of data set: cell-based.
Data set [10] concerns the target T1, Cytochrome P450 1B1. Kind of data set: Inhibition of […] CYP1B1 expressed in Escherichia coli DH5alpha cell membranes coexpressing human NADPH-cytochrome P450 reductase using 7-Ethoxyresorufin as substrate preincubated for 3 mins followed by NADPH addition measured after 10 mins by EROD assay.
Data set [11] has as its target T3, Cytochrome P450 1A2. Nature of the data set: Inhibition of […] CYP1A2 expressed in Escherichia coli DH5alpha cell membranes coexpressing human NADPH-cytochrome P450 reductase using 7-Ethoxyresorufin as substrate preincubated for 3 mins followed by NADPH addition measured after 10 mins by EROD assay. It counts as ADME.
In data set [12] the target is T2, Cytochrome P450 1A1. Nature of the data set: Inhibition of human CYP1A1 using ethoxyresorufin as substrate by EROD assay. It counts as ADME.
The target of data set [13] is T2, Cytochrome P450 1A1. Kind of data set: Inhibition of human CYP1A1 using ethoxyresorufin as substrate by MROD assay. Type of data set: ADME.
In data set [14] the target is T1, Cytochrome P450 1B1. Nature of the data set: Mixed type inhibition of human CYP1B1 by EROD assay.
For data set [15], the target named is T1, Cytochrome P450 1B1.
Description: Inhibition of human CYP1B1 by EROD assay

Structures are written as SMILES.

T2 sequence (P04798 whole entry): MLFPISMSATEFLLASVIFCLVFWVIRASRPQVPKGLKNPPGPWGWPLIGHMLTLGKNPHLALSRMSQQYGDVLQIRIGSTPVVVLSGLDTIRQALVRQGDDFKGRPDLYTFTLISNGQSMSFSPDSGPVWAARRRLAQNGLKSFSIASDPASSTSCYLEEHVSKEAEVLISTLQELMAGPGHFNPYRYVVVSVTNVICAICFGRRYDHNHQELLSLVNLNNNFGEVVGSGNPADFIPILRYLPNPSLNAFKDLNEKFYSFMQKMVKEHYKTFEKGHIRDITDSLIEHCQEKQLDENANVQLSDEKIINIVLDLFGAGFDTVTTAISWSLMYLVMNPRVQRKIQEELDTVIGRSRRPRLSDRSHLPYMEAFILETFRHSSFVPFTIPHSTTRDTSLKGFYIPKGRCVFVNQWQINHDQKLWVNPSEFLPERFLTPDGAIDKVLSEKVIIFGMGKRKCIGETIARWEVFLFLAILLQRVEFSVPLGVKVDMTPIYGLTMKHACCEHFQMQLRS

Usually IC50 stands for the point on the concentration scale where inhibition reaches its midpoint. On to `C[C@]12CCCCC1=CC[C@@H]1[C@@H]2CC[C@]2(C)C(=O)[C@H](F)C[C@@H]12`, for which the results for the IC50 in [1] and in [2] were 500 nM and 2500 nM, respectively.

`COc1ccc(-c2cc(=O)c3cc(OC)c4cccc(OC)c4c3[nH]2)cc1`: in data set [3], the IC50 was 4.1 nM.

In data set [4], `COc1ccc2c(c(OC)cc3c(=O)cc(-c4ccc(F)cc4)oc32)c1OC` came in with an IC50 of 1 nM.

With `COc1cc2c(=O)cc(-c3cccc(Br)c3)[nH]c2c2c(OC)cccc12`, the IC50 in [3] was found to be 3.6 nM.

For the compound `COc1cc2c(=O)cc(-c3ccc(F)cc3)[nH]c2c2c(OC)cccc12`, the IC50 in [3] came to 3.9 nM; in data set [5], 10.5 nM; in data set [6], 190 nM.

Compound `O=c1cc(-c2ccc(O)cc2)oc2cc(O)cc(O)c12` [APIGENIN] had an INH in data set [7] of 4.1 µM.

As to `COc1ccc2cc3[n+](cc2c1OC)CCc1cc2c(cc1-3)OCO2` [BERBERINE], the IC50 was 94 nM in [8] and 2500 nM in data set [9].

With `O=c1cc(-c2ccccc2)oc2cc(O)cc(O)c12` [CHRYSIN], the INH in [10] was 0.28 µM; in [7], 6.2 µM; in data set [11], 0.42 µM.

Regarding `COc1cc(-c2oc3cc(O)cc(O)c3c(=O)c2O)ccc1O` [ISORHAMNETIN], the INH in data set [10] stood at 30.1 µM; in data set [7] it was 25 µM; in data set [11], 137 µM.

`O=c1c(O)c(-c2ccc(O)cc2)oc2cc(O)cc(O)c12` [KAEMPFEROL]: the INH in data set [7] came to 52 µM.

Regarding `O=c1cc(-c2ccc(O)c(O)c2)oc2cc(O)cc(O)c12` [LUTEOLIN], the INH amounted to 0.36 µM in data set [10], 1.2 µM in data set [7] and 8.9 µM in data set [11].

For the compound `O=c1c(O)c(-c2ccc(O)c(O)c2)oc2cc(O)cc(O)c12` [QUERCETIN], the values for the INH in data set [10], in data set [7] and in data set [11] were 23 µM, 77 µM and 418 µM, respectively.

What is called Ki is a measure of affinity in units of concentration, obtained from inhibition or displacement. Lower therefore signals tighter binding. Consider `Oc1ccc(/C=C/c2cc(O)cc(O)c2)cc1` [RESVERATROL], for which the figures for the IC50 in data set [12], in data set [13] and in data set [15] were 23000 nM, 11000 nM and 1400 nM, respectively. In data set [14], this compound registered an inhibitory constant (Ki) of 750 nM.
